Source: patent US8822449B2, “Substituted aminoindanes and analogs thereof, and the pharmaceutical use thereof” (Sanofi, priority 2008, dated 2014)

Molecular target: T1, sodium-proton exchanger of subtype 3 (NHE3) (Homo sapiens, UniProt P48764)
T1 construct: expressed in transfected cells
T1 sequence (P48764 26-834): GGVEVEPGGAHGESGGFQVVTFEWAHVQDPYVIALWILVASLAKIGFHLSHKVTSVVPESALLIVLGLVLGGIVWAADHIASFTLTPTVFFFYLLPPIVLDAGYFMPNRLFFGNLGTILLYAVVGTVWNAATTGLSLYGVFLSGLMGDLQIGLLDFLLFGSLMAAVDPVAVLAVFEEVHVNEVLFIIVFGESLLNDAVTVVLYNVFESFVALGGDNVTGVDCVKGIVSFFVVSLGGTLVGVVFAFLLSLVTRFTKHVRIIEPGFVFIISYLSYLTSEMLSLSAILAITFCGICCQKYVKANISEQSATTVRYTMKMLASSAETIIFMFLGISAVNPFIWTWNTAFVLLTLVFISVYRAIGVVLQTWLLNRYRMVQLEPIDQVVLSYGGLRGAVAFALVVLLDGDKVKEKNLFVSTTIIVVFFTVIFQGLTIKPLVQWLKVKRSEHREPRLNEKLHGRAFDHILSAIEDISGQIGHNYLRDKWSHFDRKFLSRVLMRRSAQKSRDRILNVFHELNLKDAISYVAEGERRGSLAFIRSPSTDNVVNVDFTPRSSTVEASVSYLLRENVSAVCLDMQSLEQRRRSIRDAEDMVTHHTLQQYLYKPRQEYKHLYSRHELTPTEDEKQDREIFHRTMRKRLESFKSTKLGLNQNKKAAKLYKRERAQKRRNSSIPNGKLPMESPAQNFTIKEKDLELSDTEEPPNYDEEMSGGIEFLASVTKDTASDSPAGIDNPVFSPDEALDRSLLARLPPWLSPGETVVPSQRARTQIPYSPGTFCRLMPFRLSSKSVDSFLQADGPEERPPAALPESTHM
Assay: Recovery of intracellular pH (pHi) after acidification in LAP1 cells stably expressing NHE3 (BCECF fluorescence, FLIPR)
Type: cell-based
Settings: LAP1 cells stably expressing NHE3; pH recovery after acidification; range 1 is % inhibition at 10 μM; read-out: Activity range (inhibitory effect on NHE3)

Row | Structure (SMILES) | IC50 [nM] | inhibition at 10 µM [%]
1 | N[C@H]1CCCN([C@H]2CCc3ccccc3[C@@H]2Oc2ccnc(Cl)c2)C1 (racemic) [Example 153, (S)-1-[rac-trans-(1,2)-1-(2-chloropyridin-4-yloxy)-1,2,3,4-tetrahydronaphthalen-2-yl]piperidin-3-ylamine] | – | 20 to 50
2 | CSc1ccc(O[C@H]2c3ccccc3CC[C@@H]2N2CCC[C@@H](N)C2)cc1 (racemic) [Example 74, (R)-1-[rac-trans-(1,2)-1-(4-methylsulfanylphenoxy)-1,2,3,4-tetrahydronaphthalen-2-yl]piperidin-3-ylamine] | – | 20 to 50
3 | Cc1nnc(C)n1-c1ccc(O[C@H]2c3cc(F)cc(F)c3C[C@@H]2N2CC[C@@H](O)C2)c(F)c1 [Example 110, (R)-1-{(1S,2S)-1-[4-(3,5-dimethyl-[1,2,4]triazol-4-yl)-2-fluorophenoxy]-4,6-difluoroindan-2-yl}pyrrolidin-3-ol] | < 1000 | –
4 | COC(=O)c1ccc(O[C@H]2c3cc(Cl)ccc3C[C@@H]2N2CC[C@@H](O)C2)c(Cl)c1 [Example 446, 3-chloro-4-[trans-(1S,2S)-6-chloro-2-((R)-3-hydroxypyrrolidin-1-yl)indan-1-yloxy]benzoic acid methyl ester] | – | 20 to 50
5 | O=C1CCCN1c1cccc(O[C@H]2c3cc(Cl)cc(Cl)c3C[C@@H]2N2CC[C@@H](O)C2)c1 [Example 315, 1-{3-[(1S,2S)-4,6-dichloro-2-((R)-3-hydroxypyrrolidin-1-yl)indan-1-yloxy]phenyl}pyrrolidin-2-one] | 1000 to 10000 | –
6 | N[C@@H]1CCCN([C@@H]2Cc3ccccc3[C@H]2Oc2cccc(N3CCCCC3)c2)C1 (racemic) [Example 59, (R)-1-[rac-trans-(1,2)-1-(3-piperidin-1-ylphenoxy)indan-2-yl]piperidin-3-ylamine] | 1000 to 10000 | –
7 | CS(=O)(=O)c1ccc(O[C@H]2c3cc(F)cc(F)c3C[C@@H]2N2CC[C@@H](O)C2)cc1 [Example 28, (R)-1-[(1S,2S)-4,6-difluoro-1-(4-methanesulfonylphenoxy)indan-2-yl]pyrrolidin-3-ol] | 1000 to 10000 | –
8 | CN1CCN([C@H]2Cc3c(Cl)cc(Cl)cc3[C@@H]2Oc2ccc(C#N)cc2F)CC1 [Example 485, 4-[(1S,2S)-4,6-dichloro-2-(4-methylpiperazin-1-yl)indan-1-yloxy]-3-fluorobenzonitrile] | – | 20 to 50
9 | O=C1COC(=O)N1c1ccc(F)c(O[C@H]2c3cc(Cl)cc(Cl)c3C[C@@H]2N2CC[C@@H](O)C2)c1 [Example 418, 3-{3-[(1S,2S)-4,6-dichloro-2-((R)-3-hydroxypyrrolidin-1-yl)indan-1-yloxy]-4-fluorophenyl}oxazolidine-2,4-dione] | 1000 to 10000 | –
10 | NS(=O)(=O)c1ccc(O[C@H]2c3ccccc3C[C@@H]2N2CCCC2)c(Cl)c1 (racemic) [Example 444, 3-chloro-4-(rac-trans-(1,2)-2-pyrrolidin-1-ylindan-1-yloxy)benzenesulfonamide] | < 1000 | –
11 | O=S1(=O)CCCN1c1cccc(O[C@H]2c3ccccc3C[C@@H]2N2CCCC2)c1 (racemic) [Example 363, 2-[3-(rac-trans-(1,2)-2-pyrrolidin-1-ylindan-1-yloxy)phenyl]isothiazolidine 1,1-dioxide] | 1000 to 10000 | –
12 | Fc1ccc(O[C@H]2c3cc(Cl)cc(Cl)c3C[C@@H]2N2CCNCC2)c(-c2cc[nH]n2)c1 [Example 309, 1-{(1S,2S)-4,6-dichloro-1-[4-fluoro-2-(1H-pyrazol-3-yl)phenoxy]indan-2-yl}piperazine] | < 1000 | –
13 | NS(=O)(=O)c1ccc(O[C@H]2c3ccccc3C[C@@H]2CN2CCCCC2)c(F)c1 (racemic) [Example 450, 3-fluoro-4-(2-piperidin-1-ylmethylindan-1-yloxy)benzenesulfonamide] | – | 20 to 50
14 | N[C@@H]1CCCN([C@H]2CCc3ccccc3[C@@H]2Oc2cccc(-n3cnnn3)c2)C1 (racemic) [Example 60, (R)-1-[rac-trans-(1,2)-1-(3-tetrazol-1-ylphenoxy)-1,2,3,4-tetrahydronaphthalen-2-yl]piperidin-3-ylamine] | 1000 to 10000 | –
15 | COCCc1ccc(O[C@@H]2c3ccccc3C[C@H]2N2CCC(N)C2)cc1 (mixture of isomers) [Example 342, 1-{rac-trans-(1,2)-1-[4-(2-methoxyethyl)phenoxy]indan-2-yl}pyrrolidin-3-ylamine] | 1000 to 10000 | –
16 | CN1CCN(C(=O)c2ccc(O[C@H]3c4ccccc4C[C@@H]3N3CCCC3)cc2)CC1 (racemic) [Example 22, (4-methylpiperazin-1-yl)-[4-(rac-trans-(1,2)-2-pyrrolidin-1-ylindan-1-yloxy)phenyl]methanone] | 1000 to 10000 | –
17 | CS(=O)(=O)c1ccc(O[C@H]2c3ccccc3C[C@@H]2N2CCC[C@@H](NCCC(F)(F)F)C2)cc1 [Example 220, {(R)-1-[trans-(1S,2S)-1-(4-methanesulfonylphenoxy)indan-2-yl]piperidin-3-yl}-(3,3,3-trifluoropropyl)amine] | < 1000 | –
18 | O=C1CNC(=O)N1c1ccc(F)c(O[C@H]2c3cc(Cl)cc(Cl)c3C[C@@H]2N2CC[C@@H](O)C2)c1 [Example 417, 3-{3-[(1S,2S)-4,6-dichloro-2-((R)-3-hydroxypyrrolidin-1-yl)indan-1-yloxy]-4-fluorophenyl}imidazolidine-2,4-dione] | 1000 to 10000 | –
19 | N[C@@H]1CCCN([C@H]2CCc3ccccc3[C@@H]2Oc2ccc(F)c(F)c2)C1 (racemic) [Example 51, (R)-1-[rac-trans-(1,2)-1-(3,4-difluorophenoxy)-1,2,3,4-tetrahydronaphthalen-2-yl]piperidin-3-ylamine] | – | 20 to 50

Second part, the compound after the results:

Row | IC50 [nM] | inhibition at 10 µM [%] | Structure (SMILES)
20 | 1000 to 10000 | – | NCC1CCN([C@@H]2Cc3ccccc3[C@H]2Oc2ccc(F)cc2F)C1 (mixture of isomers) [Example 602, C-{1-[rac-trans-(1,2)-1-(2,4-difluorophenoxy)indan-2-yl]pyrrolidin-3-yl}methylamine]
21 | 1000 to 10000 | – | CCc1nc(C)cn1-c1ccc(F)c(O[C@H]2c3cc(Cl)cc(Cl)c3C[C@@H]2N2CC[C@@H](O)C2)c1 [Example 725, (R)-1-{trans-(1S,2S)-4,6-Dichloro-1-[5-(2-ethyl-4-methyl-imidazol-1-yl)-2-fluoro-phenoxy]-indan-2-yl}-pyrrolidin-3-ol]
22 | < 1000 | – | COC(=O)c1nccn1-c1ccc(O[C@H]2c3cc(Cl)cc(Cl)c3C[C@@H]2N2CC[C@@H](O)C2)c(F)c1 [Example 740, 1-{4-[trans-(1S,2S)-4,6-Dichloro-2-((R)-3-hydroxy-pyrrolidin-1-yl)-indan-1-yloxy]-3-fluoro-phenyl}-1H-imidazole-2-carboxylic acid methyl ester]
23 | – | 20 to 50 | Fc1ccc(O[C@H]2c3ccccc3CC[C@@H]2N2CCOCC2)c(-c2ccno2)c1 (racemic) [Example 507, 4-[rac-trans-(1,2)-1-(4-fluoro-2-isoxazol-5-ylphenoxy)-1,2,3,4-tetrahydronaphthalen-2-yl]morpholine]
24 | 1000 to 10000 | – | Cn1ccn(-c2ccc(F)c(O[C@H]3c4cc(Cl)cc(F)c4C[C@@H]3NC3CCCC3)c2)c1=O [Example 756, 1-[3-(trans-(1S,2S)-6-Chloro-2-cyclopentylamino-4-fluoro-indan-1-yloxy)-4-fluoro-phenyl]-3-methyl-1,3-dihydro-imidazol-2-one]
25 | 1000 to 10000 | – | Cc1cn(-c2ccc(O[C@H]3c4cc(Cl)cc(Cl)c4C[C@@H]3N3CC[C@@H](O)C3)cc2)c(C(C)C)n1 [Example 714, (R)-1-{trans-(1S,2S)-4,6-Dichloro-1-[4-(2-isopropyl-4-methyl-imidazol-1-yl)-phenoxy]-indan-2-yl}-pyrrolidin-3-ol]
26 | 1000 to 10000 | – | O=C1CNC(=O)N1c1ccc(O[C@H]2c3cc(Cl)cc(F)c3C[C@@H]2NC2CCCC2)c(F)c1 [Example 753, 3-[4-(trans-(1S,2S)-6-Chloro-2-cyclopentylamino-4-fluoro-indan-1-yloxy)-3-fluoro-phenyl]-imidazolidine-2,4-dione]
27 | – | 20 to 50 | CS(=O)(=O)c1ccc(O[C@H]2c3ccccc3CC[C@@H]2N2CCOCC2)cc1 (racemic) [Example 508, 4-[rac-trans-(1,2)-1-(4-methanesulfonylphenoxy)-1,2,3,4-tetrahydronaphthalen-2-yl]morpholine]
28 | 1000 to 10000 | – | c1ccc2c(c1)C[C@H](N1CCCC1)[C@H]2Oc1cccc2cccnc12 (racemic) [Example 595, 8-(rac-trans-(1,2)-2-pyrrolidin-1-ylindan-1-yloxy)quinoline]
29 | < 1000 | – | CN(CCO)[C@H]1Cc2c(Cl)cc(Cl)cc2[C@@H]1Oc1ccc(S(C)(=O)=O)cc1 [Example 702, 2-{[trans-(1S,2S)-4,6-Dichloro-1-(4-methanesulfonyl-phenoxy)-indan-2-yl]-methyl-amino}-ethanol]
30 | – | 20 to 50 | Fc1ccc(O[C@H]2c3ccccc3CC[C@@H]2N2CCOCC2)c2ncccc12 (racemic) [Example 586, 5-fluoro-8-(rac-trans-(1,2)-2-morpholin-4-yl-1,2,3,4-tetrahydronaphthalen-1-yloxy)quinoline]
